This note sets out measurements from US5977106A, “3,5-dioxo-(2H,4H)-1,2,4-triazine derivatives” (Pierre Fabre Medicament, priority 1994, dated 1999).

Structures can show the parent of a compound that is named as a salt. Where two headings read alike, the source gives them in different places.

One experiment has as its target T1, 5-HT1A receptor (Rattus norvegicus, UniProt P19327).
T1 sequence (P19327 1-422): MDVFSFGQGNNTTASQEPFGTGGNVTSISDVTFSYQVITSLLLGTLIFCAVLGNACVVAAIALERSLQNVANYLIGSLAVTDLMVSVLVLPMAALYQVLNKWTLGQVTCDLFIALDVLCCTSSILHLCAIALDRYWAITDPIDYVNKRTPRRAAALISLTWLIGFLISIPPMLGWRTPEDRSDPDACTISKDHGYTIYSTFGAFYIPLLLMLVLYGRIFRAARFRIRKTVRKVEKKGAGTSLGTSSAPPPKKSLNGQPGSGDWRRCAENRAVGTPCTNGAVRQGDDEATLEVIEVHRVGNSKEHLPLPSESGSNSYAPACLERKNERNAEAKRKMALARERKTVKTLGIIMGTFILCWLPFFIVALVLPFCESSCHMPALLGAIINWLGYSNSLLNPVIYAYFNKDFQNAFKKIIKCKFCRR
Description: biochemical. The conditions noted are these: rat cerebral cortex, [^3 H]8-OH-DPAT 0.2 nM, 23° C., 30 minutes, mean of 3 to 5 experiments; for Ki: read-out: pKi (Affinity for the 5-HT1A receptor) (converted). It counts as binding.

The target in experiment [1] is T2, 5-HT1A type serotoninergic receptors (Rattus norvegicus, UniProt P19327).
T2 construct: carried out in male rats (Sprague Dawley); from tissue; host or cells: living male Sprague Dawley rats (whole animal)
T2 sequence (P19327 1-422): T1 sequence (P19327 1-422)
Description: 5-HT syndrome in rats (FBP, LLR, FPT). It is filed as in vivo. The conditions noted are these: ip, male Sprague Dawley rats. The protocol: The central activity of the compounds of the invention was evaluated for their capacity to cause the 5-HT syndrome, which is characterized by reciprocal fore-paw treading (FPT), lower-lip retraction (LLR) and flat body posture (FBP).
The experiments for the evaluation of the 5-HT syndrome are carried out in male rats (Sprague Dawley) according to the method described by F.C COLPAERT et al (Drug Dev. Res., 26, 21-48; 1992).

The mark [2] stands for this setting: FBP, read-out: ED50 flat body posture (FBP), 5-HT syndrome.
[3] abbreviates: FPT, read-out: ED50 reciprocal fore-paw treading (FPT), 5-HT syndrome.
Where [4] appears, read: LLR, read-out: ED50 lower-lip retraction (LLR), 5-HT syndrome.

Regarding `Cc1ccnc(N2CCN(CCCCn3ncc(=O)n(C)c3=O)CC2)n1` [Compound 25], the Ki at 5-HT1A receptor was 724 pM.

As to `CN(CCCCn1ncc(=O)n(C)c1=O)CC1COc2ccccc2O1` (stereo not drawn) [Compound 15, 4-methyl-2-(4-(N-methyl, 1,4-benzodioxan-2-ylmethylamino)butyl)-3,5-dioxo-(2H,4H)-1,2,4-triazine fumarate], the Ki on 5-HT1A receptor was 2820 pM. “4-methyl-2-(4-(4-(4,6-dimethyl-2-pyrimidinyl)piperazino)butyl)-3,5-dioxo-(2H,4H)-1,2,4-triazine [Compound 27]”: the “pKi (Affinity for the 5-HT1A receptor)” value at 5-HT1A receptor is 9.23. Consider `Cc1nn(CCCCN2CCN(c3cccc(C(F)(F)F)c3)CC2)c(=O)n(C)c1=O` [Compound 13, 4,6-dimethyl-2-(4-(4-(3-trifluoromethylphenyl)piperazino)butyl-3,5-dioxo-(2H,4H)-1,2,4-triazine hydrochloride], for which the Ki at 5-HT1A receptor was 2630 pM.

Take `COc1ccnc(N2CCN(CCCCn3ncc(=O)n(C)c3=O)CC2)n1` [Compound 28, 4-methyl-2-(4-(4-(4-methoxy-2-pyrimidinyl)piperazino)butyl)-3,5-dioxo-(2H,4H)-1,2,4-triazine]: at 5-HT1A receptor, the Ki is 851 pM. On to “4-methyl-2-(4-(2,3-dihydro-1,4-dioxino-[2,3-b]-pyridin-2-ylmethylamino)butyl)-3,5-dioxo-(2H,4H)-1,2,4-triazine fumarate [Compound 16]”, for which the “pKi (Affinity for the 5-HT1A receptor)” value on 5-HT1A receptor is recorded as 9.36. Take `COc1ccccc1N1CCN(CCCCn2ncc(=O)n(C)c2=O)CC1` [Compound 11]: the Ki on 5-HT1A receptor is 132 pM. `Cn1c(=O)cnn(CCCCN2CCN(c3ncccn3)CC2)c1=O` [Compound 30, 4-methyl-2-(4-(4-(2-pyrimidinyl)piperazino)butyl)-3,5-dioxo-(2H,4H)-1,2,4-triazine fumarate]: at 5-HT1A receptor, the Ki is 3310 pM.

With `Cn1c(=O)cnn(CCCCN2CCN(c3cccc(Cl)c3Cl)CC2)c1=O` [Compound 22, 4-methyl-2-(4-(4-(2,3-dichloro-phenyl)piperazino)butyl)-3,5-dioxo-(2H,4H)-1,2,4-triazine], at 5-HT1A receptor, the Ki was 316 pM. As a reminder, the ED50 is the dose at which the effect has come halfway, by size or by number of responders. `Cl.Cn1c(=O)cnn(CCCCN2CCN(c3cccc(C(F)(F)F)c3)CC2)c1=O` [Compound 3, 4-methyl-2-(4-(4-(3-trifluoromethylphenyl)piperazino)butyl)-3,5-dioxo-(2H,4H)-1,2,4-triazine hydrochloride]: at 5-HT1A receptor, the Ki was 240 pM. For the same compound, the median effective dose (ED50) was found to be 0.31 mg/kg in experiment [1] (setting [2]), 0.31 mg/kg in experiment [1] (setting [3]) and 0.08 mg/kg in experiment [1] (setting [4]). In the case of `Cc1cc(C)nc(N2CCN(CCCCn3ncc(=O)n(C)c3=O)CC2)n1` [Compound 26, 4-methyl-2-(4-(4-(4,6-dimethyl-2-pyrimidinyl)piperazino)butyl)-3,5-dioxo-(2H,4H)-1,2,4-triazine], the Ki at 5-HT1A receptor is 646 pM. Consider `Cn1c(=O)cnn(CCCCN2CCN(c3cccc(Cl)c3)CC2)c1=O` [Compound 4, 4-methyl-2-(4-(4-(3-chlorophenyl)piperazino)butyl)-3,5-dioxo-(2H,4H)-1,2,4-triazine], for which the Ki on 5-HT1A receptor was 269 pM. `Cc1nn(CCCCN2CCN(c3cccc(C(F)(F)F)c3)CC2)c(=O)[nH]c1=O` [Compound 12, 6-methyl-2-(4-(4-(3-trifluoromethylphenyl)piperazino)butyl)-3,5-dioxo-(2H,4H)-1,2,4-triazine]: the Ki at 5-HT1A receptor is 6460 pM. Turning to `O=c1cnn(CCCCN2CCN(c3cccc(C(F)(F)F)c3)CC2)c(=O)[nH]1` [Compound 1, 2-[4-(4-(3-trifluoromethylphenyl)piperazino)butyl]-3,5-dioxo-(2H,4H)-1,2,4-triazine hydrochloride], at 5-HT1A receptor, the Ki is 550 pM. As for `Cn1c(=O)cnn(CCCCN2CCN(c3ncccn3)CC2)c1=O` [Compound 9, 4-methyl-2-(4-(4-pyrimidinyl-2)piperazino)butyl-3,5-dioxo-(2H,4H)-1,2,4-triazine], at 5-HT1A receptor, the Ki is 4570 pM. The 50% effective dose (ED50) in experiment [1] (setting [2]) was 0.08 mg/kg; in experiment [1] (setting [3]) it was 0.31 mg/kg; in experiment [1] (setting [4]) it was 0.08 mg/kg. As for `COc1ccc2cccc(N3CCN(CCCCn4ncc(=O)n(C)c4=O)CC3)c2c1` [Compound 10, 4-methyl-2-(4-(4-(7-methoxynaphthalene-1-yl)piperazino)butyl-3,5-dioxo-(2H,4H)-1,2,4-triazine fumarate], at 5-HT1A receptor, the Ki is 32.4 pM. In addition, the values for the ED50 in experiment [1] (setting [2]), in experiment [1] (setting [3]) and in experiment [1] (setting [4]) were 0.02 mg/kg, 0.02 mg/kg and 0.005 mg/kg, respectively. Turning to `Cn1c(=O)cnn(CCCCN2CCN(c3ccc(Cl)c(Cl)c3)CC2)c1=O` [Compound 21, 4-methyl-2-(4-(4-(3,4-dichloro-phenyl)piperazino)butyl)-3,5-dioxo-(2H,4H)-1,2,4-triazine], at 5-HT1A receptor, the Ki was 2630 pM. For the compound `O=C1CC2(CCCC2)CC(=O)N1CCCCN1CCN(c2ncccn2)CC1` [Buspirone, reference compound], the ED50 in experiment [1] (setting [3]) was > 40 mg/kg. Regarding `Cn1c(=O)cnn(CCCCN2CCN(c3nccc(Cl)n3)CC2)c1=O` [Compound 24], the Ki at 5-HT1A receptor was 794 pM. With `Cn1c(=O)cnn(CCCCN2CCN(c3cc(Cl)cc(Cl)c3)CC2)c1=O` [Compound 23, 4-methyl-2-(4-(4-(3,5-dichloro-phenyl)piperazino)butyl)-3,5-dioxo-(2H,4H)-1,2,4-triazine], the Ki on 5-HT1A receptor is 912 pM.

In the case of `Cn1c(=O)cnn(CCCCNCC2COc3ccccc3O2)c1=O` (stereo not drawn) [Compound 14, 4-methyl-2-(4-(1,4-benzodioxane-2-ylmethylamino)butyl)-3,5-dioxo-(2H,4H)-1,2,4-triazine], on 5-HT1A receptor, the Ki is 269 pM.
